According to patent publication US12065445B2, “CDK2 inhibitors and methods of using the same” (Cedilla Therapeutics, Inc., priority 2021, dated 2024):

The molecules below were run on Kuramochi cells (assay: BrdU Cell Proliferation Assay). Settings: read-out: BrdU - KURAMOCHI.1: IC50.
Assay type: cell-based
Summary of the method: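 Signal is 450 nm absorbance from a peroxidase anti-BrdU ELISA after a 1-hour BrdU label, background-subtracted and normalized to DMSO-treated wells. Kuramochi cells (2,000 per well) had been exposed to compound for 4 days. Dosing used a 10-point dose response in 3-fold steps.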

Cc1noc([C@H](C)NC(=O)[C@H]2CN(C(=O)c3cnn(Cc4ccccc4)c3)CC23CN(C(=O)[C@H]2CC2(C)C)C3)n1 [I-158B] and COC(=O)[C@@H](CO)NC(=O)[C@@H]1CN(C(=O)c2cnn(Cc3ccccc3)c2)CC12CN(C(=O)[C@H]1CC1(C)C)C2 [I-187A] cannot be ordered by IC50: over 10 µM for the first, over 10 µM for the second.

CNC(=O)[C@@H](NC(=O)C1CN(Cc2n[nH]c3ccccc23)CC12CN(C(=O)[C@H]1CC1(C)C)C2)[C@@H](C)OCc1ccccc1 (stereo partly shown) [I-159] and C[C@@H](OCc1ccccc1)[C@H](NC(=O)[C@H]1CN(C(=O)c2cnn(Cc3ccccc3)c2)CC12CN(C(=O)[C@H]1CC1(C)C)C2)C(N)=O [I-176B] cannot be ordered by IC50: over 10 µM for the first, over 10 µM for the second.

Compared with CNC(=O)[C@@H](NC(=O)[C@@H]1CN(C(=O)c2scnc2C)CC12CN(C(=O)[C@H]1CC1(C)C)C2)[C@@H](C)OCC1CCCCC1 [I-160A], CNC(=O)[C@@H](NC(=O)[C@H]1CN(C(=O)c2scnc2C)CC12CN(C(=O)[C@H]1CC1(C)C)C2)[C@@H](C)OCC1CCCCC1 [I-160B] is higher in IC50: 0.5 to 5 µM for the first, over 10 µM for the second.

CNC(=O)[C@@H](NC(=O)[C@@H]1CN(C(=O)c2cnc(C(F)(F)F)s2)CC12CN(C(=O)[C@H]1CC1(C)C)C2)[C@@H](C)OCC1CCCCC1 [I-161A] and CNC(=O)[C@@H](NC(=O)[C@H]1CN(C(=O)c2cnc(C(F)(F)F)s2)CC12CN(C(=O)[C@H]1CC1(C)C)C2)[C@@H](C)OCC1CCCCC1 [I-161B] cannot be ordered by IC50: over 10 µM for the first, over 10 µM for the second.

CNC(=O)[C@@H](NC(=O)[C@H]1CN(C(=O)c2sc(COC)nc2C)CC12CN(C(=O)[C@H]1CC1(C)C)C2)[C@@H](C)OCC1CCCCC1 [I-162B] and CNC(=O)[C@@H](NC(=O)[C@H]1CN(C(=O)c2sc(Cl)nc2C)CC12CN(C(=O)[C@H]1CC1(C)C)C2)[C@@H](C)OCC1CCCCC1 [I-208B] cannot be ordered by IC50: over 10 µM for the first, over 10 µM for the second.

CNC(=O)[C@@H](NC(=O)[C@H]1CN(C(=O)c2scnc2C(F)(F)F)CC12CN(C(=O)[C@H]1CC1(C)C)C2)[C@@H](C)OCC1CCCCC1 [I-163B] and CNC(=O)[C@@H](NC(=O)[C@@H]1CN(C(=O)c2scnc2C2CC2)CC12CN(C(=O)[C@H]1CC1(C)C)C2)[C@@H](C)OCC1CCCCC1 [I-185A] cannot be ordered by IC50: over 10 µM for the first, over 10 µM for the second.

First: CNC(=O)[C@@H](NC(=O)[C@H]1CN(C(=O)c2cnn(Cc3ccccc3)c2)CC12CN(C(=O)[C@H]1CC1(C)C)C2)[C@H](C)OCC1CCCCC1 [I-165]
Second: CNC(=O)[C@@H](NC(=O)[C@H]1CN(C(=O)c2cnn(Cc3ccccc3)c2)CC12CN(C(=O)[C@H]1CC1(C)C)C2)[C@@H](C)OCC1CCCCCC1 [I-166B]
The IC50 of the first is higher: over 10 µM for the first, 0.5 to 5 µM for the second. The second is the more potent here.

First: CNC(=O)[C@@H](NC(=O)[C@H]1CN(C(=O)c2cnn(Cc3ccc(F)cc3)c2)CC12CN(C(=O)[C@H]1CC1(C)C)C2)[C@@H](C)OCC1CCC(F)(F)CC1 [I-167]
Second: CNC(=O)[C@@H](NC(=O)[C@@H]1CN(C(=O)c2cnn(Cc3ccc(F)cc3)c2)CC12CN(C(=O)[C@H]1CC1(C)C)C2)[C@@H](C)OCC1CCC(F)(F)CC1 [I-170]
The IC50 of the first is higher: over 10 µM for the first, 0.5 to 5 µM for the second. The second is the more potent here.

CC1(C)C[C@@H]1C(=O)N1CC2(CN(C(=O)c3cnn(Cc4ccccc4)c3)C[C@@H]2C(=O)Nc2ccc(Cc3ccccc3)nc2)C1 [I-168] and CNC(=O)[C@@H](NC(=O)[C@@H]1CN(C(=O)c2cnn(Cc3ccccc3)c2)CC12CN(C(=O)[C@H]1CC1(C)C)C2)C(C)(C)SCc1ccccc1 [I-171A, (S)-6-(1-benzyl-1H-pyrazole-4-carbonyl)-N—((R)-3-(benzylthio)-3-methyl-1-(methylamino)-1-oxobutan-2-yl)-2-((S)-2,2-dimethylcyclopropane-1-carbonyl)-2,6-diazaspiro[3.4]octane-8-carboxamide] cannot be ordered by IC50: over 10 µM for the first, over 10 µM for the second.

CNC(=O)[C@@H](NC(=O)[C@@H]1CN(C(=O)c2nccs2)CC12CN(C(=O)[C@H]1CC1(C)C)C2)[C@@H](C)OCC1CCCCC1 [I-169] and CNC(=O)[C@@H](NC(=O)[C@H]1CN(C(=O)c2scnc2C2CC2)CC12CN(C(=O)[C@H]1CC1(C)C)C2)[C@@H](C)OCC1CCCCC1 [I-185B] cannot be ordered by IC50: over 10 µM for the first, over 10 µM for the second.

CNC(=O)[C@@H](NC(=O)[C@H]1CN(C(=O)c2cnn(Cc3ccccc3)c2)CC12CN(C(=O)[C@H]1CC1(C)C)C2)C(C)(C)SCc1ccccc1 [I-171B] and CNC(=O)[C@@H](NC(=O)[C@@H]1CN(C(=O)c2cnn(Cc3ccccc3)c2)CC12CN(C(=O)[C@H]1CC1(C)C)C2)C(C)(C)S(=O)(=O)Cc1ccccc1 [I-199, (S)-6-(1-benzyl-1H-pyrazole-4-carbonyl)-N—((R)-3-(benzylsulfonyl)-3-methyl-1-(methylamino)-1-oxobutan-2-yl)-2-((S)-2,2-dimethylcyclopropane-1-carbonyl)-2,6-diazaspiro[3.4]octane-8-carboxamide] cannot be ordered by IC50: over 10 µM for the first, over 10 µM for the second.

First: C[C@@H]1C[C@H](C)CN(C(=O)[C@@H](NC(=O)C2CN(C(=O)c3cncs3)CC23CN(C(=O)[C@H]2CC2(C)C)C3)[C@@H](C)OCC2CCCCC2)C1 (stereo partly shown) [I-172]
Second: C[C@@H](OCC1CCCCC1)[C@H](NC(=O)[C@@H]1CN(C(=O)c2ccn[nH]2)CC12CN(C(=O)[C@H]1CC1(C)C)C2)C(=O)N1CCCCC1 [I-216]
The IC50 of the first is lower: at most 0.5 µM for the first, over 10 µM for the second.

First: CNC(=O)[C@@H](NC(=O)[C@H]1CN(C(=O)c2cnn(Cc3ccccc3)c2)CC12CN(C(=O)C(C)(C)C)C2)[C@@H](C)OCC1CCCCC1 [I-174B]
Second: C[C@@H](OCC1CCCCC1)[C@H](NC(=O)[C@@H]1CN(C(=O)c2cnn(Cc3ccccc3)c2)CC12CN(C(=O)[C@H]1CC1(C)C)C2)C(N)=O [I-200]
The IC50 of the first is higher: over 10 µM for the first, 0.5 to 5 µM for the second. The second is the more potent here.

CNC(=O)[C@@H](NC(=O)[C@H]1CN(C(=O)c2cnc(CC3CC3)s2)CC12CN(C(=O)[C@H]1CC1(C)C)C2)[C@@H](C)OCC1CCCCC1 [I-177B] and CNC(=O)[C@@H](NC(=O)[C@H]1CN(C(=O)c2cnc(C3CC3)s2)CC12CN(C(=O)[C@H]1CC1(C)C)C2)[C@@H](C)OCC1CCCCC1 [I-178B] cannot be ordered by IC50: over 10 µM for the first, over 10 µM for the second.

CN(C(=O)[C@H]1CCCN(C(=O)[C@@H]2CN(C(=O)c3cnn(Cc4ccccc4)c3)CC23CN(C(=O)[C@H]2CC2(C)C)C3)C1)C1CCCCC1 [I-179] and CN(C(=O)[C@@H]1CCCN(C(=O)[C@@H]2CN(C(=O)c3cnn(Cc4ccccc4)c3)CC23CN(C(=O)[C@H]2CC2(C)C)C3)C1)C1CCCCC1 [I-181] cannot be ordered by IC50: over 10 µM for the first, over 10 µM for the second.

First: CC1(C)C[C@@H]1C(=O)N1CC2(CN(C(=O)c3cnn(Cc4ccccc4)c3)C[C@H]2C(=O)N2CCC[C@H](C(=O)NC3CCCCC3)C2)C1 [I-180]
Second: CC1(C)C[C@@H]1C(=O)N1CC2(CN(C(=O)c3cnn(Cc4ccccc4)c3)C[C@H]2C(=O)N[C@H]2CCCN(C(=O)C3CCCCC3)C2)C1 [I-182]
The IC50 of the first is higher: over 10 µM for the first, 5 to 10 µM for the second.

CC1(C)C[C@@H]1C(=O)N1CC2(CN(C(=O)c3cnn(Cc4ccccc4)c3)C[C@H]2C(=O)N[C@H]2CCCN(CC3CCCCC3)C2)C1 [I-183] and CC1(C)C[C@@H]1C(=O)N1CC2(CN(C(=O)c3cnn(Cc4ccccc4)c3)C[C@H]2C(=O)N[C@@H]2CCCN(CC3CCCCC3)C2)C1 [I-212] cannot be ordered by IC50: over 10 µM for the first, over 10 µM for the second.

Compared with CNC(=O)[C@@H](NC(=O)[C@@H]1CN(C(=O)c2cncs2)CC12CN(C(=O)C(C)(C)C)C2)[C@@H](C)OCC1CCCCC1 [I-186A], CNC(=O)[C@@H](NC(=O)[C@H]1CN(C(=O)c2cncs2)CC12CN(C(=O)C(C)(C)C)C2)[C@@H](C)OCC1CCCCC1 [I-186B] is higher in IC50: 0.5 to 5 µM for the first, over 10 µM for the second.

COC(=O)[C@@H](CO)NC(=O)[C@H]1CN(C(=O)c2cnn(Cc3ccccc3)c2)CC12CN(C(=O)[C@H]1CC1(C)C)C2 [I-187B] and COC(=O)[C@H](CO)NC(=O)[C@@H]1CN(C(=O)c2cnn(Cc3ccccc3)c2)CC12CN(C(=O)[C@H]1CC1(C)C)C2 [I-209A] cannot be ordered by IC50: over 10 µM for the first, over 10 µM for the second.

C[C@@H](OCC1CCC(F)(F)CC1)[C@H](NC(=O)[C@@H]1CN(C(=O)c2cn[nH]c2)CC12CN(C(=O)C1(C(F)(F)F)CC1)C2)C(=O)N1CCC(F)(F)CC1 [I-188A] and C[C@@H](OCC1CCC(F)(F)CC1)[C@H](NC(=O)[C@H]1CN(C(=O)c2cn[nH]c2)CC12CN(C(=O)C1(C(F)(F)F)CC1)C2)C(=O)N1CCC(F)(F)CC1 [I-188B] cannot be ordered by IC50: over 10 µM for the first, over 10 µM for the second.

C[C@@H](OCC1CCC(F)(F)CC1)[C@H](NC(=O)[C@@H]1CN(C(=O)c2cnn(Cc3ccc(F)cc3)c2)CC12CN(C(=O)C1(C(F)(F)F)CC1)C2)C(=O)N1CCC(F)(F)CC1 [I-190A] and CNC(=O)[C@@H](NC(=O)[C@@H]1CN(C(=O)c2cnn(Cc3ccccc3)c2)CC12CN(C(=O)[C@H]1CC1(C)C)C2)[C@@H](C)OCC1CCC(F)(F)CC1 [I-202] cannot be ordered by IC50: at most 0.5 µM for the first, 0.5 to 5 µM for the second.

CC1(C)C[C@@H]1C(=O)N1CC2(CN(C(=O)c3cnn(Cc4ccccc4)c3)C[C@@H]2C(=O)N[C@@H]2CC[C@@H]2O)C1 [I-201A] and CC1(C)C[C@@H]1C(=O)N1CC2(CN(C(=O)c3cnn(Cc4ccccc4)c3)C[C@H]2C(=O)N[C@@H]2CC[C@@H]2O)C1 [I-201B] cannot be ordered by IC50: over 10 µM for the first, over 10 µM for the second.

CNC(=O)[C@@H](NC(=O)[C@@H]1CN(C(=O)c2cnn(Cc3ccccc3)c2)CC12CN(C(=O)[C@H]1CC1(C)C)C2)[C@@H](C)OCC(F)(F)F [I-204] and CNC(=O)[C@@H](NC(=O)[C@@H]1CN(C(=O)c2cnn(Cc3ccccc3)c2)CC12CN(C(=O)[C@H]1CC1(C)C)C2)[C@@H](C)OCC1(C(F)(F)F)CC1 [I-205A] cannot be ordered by IC50: over 10 µM for the first, over 10 µM for the second.

CNC(=O)[C@@H](NC(=O)[C@H]1CN(C(=O)c2cnn(Cc3ccccc3)c2)CC12CN(C(=O)[C@H]1CC1(C)C)C2)[C@@H](C)OCC1(C(F)(F)F)CC1 [I-205B] and COC(=O)[C@H](CO)NC(=O)[C@H]1CN(C(=O)c2cnn(Cc3ccccc3)c2)CC12CN(C(=O)[C@H]1CC1(C)C)C2 [I-209B] cannot be ordered by IC50: over 10 µM for the first, over 10 µM for the second.

CC1(C)C[C@@H]1C(=O)N1CC2(CN(C(=O)c3cnn(Cc4ccccc4)c3)C[C@H]2C(=O)N[C@H]2CCN(c3ccccc3)C2)C1 [I-206] and CC1(C)C[C@@H]1C(=O)N1CC2(CN(C(=O)c3cnn(Cc4ccccc4)c3)C[C@H]2C(=O)N2CCO[C@@H](Cc3ccccc3)C2)C1 [I-210] cannot be ordered by IC50: over 10 µM for the first, over 10 µM for the second.

CC1(C)C[C@@H]1C(=O)N1CC2(CN(C(=O)c3cnn(Cc4ccccc4)c3)C[C@H]2C(=O)N2CCC(OCc3ccccc3)CC2)C1 [I-214] and CC1(C)C[C@@H]1C(=O)N1CC2(CN(C(=O)c3cnn(Cc4ccccc4)c3)C[C@H]2C(=O)N[C@@H]2CCCN(C(=O)C3CCCCC3)C2)C1 [I-215] cannot be ordered by IC50: over 10 µM for the first, over 10 µM for the second.
